Data as given in article PMC8231556, “Inhibiting Endothelial Cell Function in Normal and Tumor Angiogenesis Using BMP Type I Receptor Macrocyclic Kinase Inhibitors” (Cancers, 2021).

What was measured:
Test in all cases: radiometric kinase profiling (33 PanQinase)
Format in all cases: biochemical
EPHA2 = molecular target: T1, EPHA2 (Homo sapiens, UniProt P29317); conditions: read-out: Inhibitory effect (%) EPHA2
T1 construct: purchased Proqinase, Germany
Procedure, shortened: (§1)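 Enzyme/substrate mixes were incubated with [γ-33P]-ATP and compound (added as a 0.1 μM solution in 10% DMSO) at 30 °C for 60 min, then stopped with H3PO4 and washed with NaCl. 33P incorporation was scintillation-counted, and residual activity (%) was normalized to untreated control and background.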

GSG2 = molecular target: T2, GSG2 (Homo sapiens, UniProt Q8TF76); conditions: read-out: Inhibitory effect (%) GSG2
T2 construct: purchased ProQinase (33PanQinase Activity Assay)
T2 sequence (Q8TF76 1-798): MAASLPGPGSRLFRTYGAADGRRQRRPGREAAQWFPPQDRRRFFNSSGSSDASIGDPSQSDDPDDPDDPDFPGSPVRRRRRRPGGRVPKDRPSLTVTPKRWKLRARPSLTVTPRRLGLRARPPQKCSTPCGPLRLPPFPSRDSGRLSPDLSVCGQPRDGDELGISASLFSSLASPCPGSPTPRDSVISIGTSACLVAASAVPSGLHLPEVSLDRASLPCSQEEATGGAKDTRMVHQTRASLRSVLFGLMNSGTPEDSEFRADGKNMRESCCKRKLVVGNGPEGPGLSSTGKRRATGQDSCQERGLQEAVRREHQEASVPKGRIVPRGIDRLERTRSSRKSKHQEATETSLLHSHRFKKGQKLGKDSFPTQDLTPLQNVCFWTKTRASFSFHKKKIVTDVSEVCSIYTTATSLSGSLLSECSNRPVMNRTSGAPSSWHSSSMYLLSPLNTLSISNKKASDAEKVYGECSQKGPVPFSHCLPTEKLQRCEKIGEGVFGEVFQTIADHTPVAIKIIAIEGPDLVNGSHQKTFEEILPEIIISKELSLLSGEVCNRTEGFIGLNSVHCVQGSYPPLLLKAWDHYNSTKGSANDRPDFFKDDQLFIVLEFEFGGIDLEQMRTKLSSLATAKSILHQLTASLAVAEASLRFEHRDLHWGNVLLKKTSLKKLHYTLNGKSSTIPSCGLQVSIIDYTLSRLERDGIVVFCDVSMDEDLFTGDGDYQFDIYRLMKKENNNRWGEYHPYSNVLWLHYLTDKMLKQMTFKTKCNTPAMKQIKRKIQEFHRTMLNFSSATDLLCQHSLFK
Procedure, shortened: as §1

AKT1 = molecular target: T3, AKT1 (Homo sapiens, UniProt P31749); conditions: read-out: Inhibitory effect (%) AKT1
T3 construct: purchased Proqinase, Germany
T3 sequence (P31749 whole entry): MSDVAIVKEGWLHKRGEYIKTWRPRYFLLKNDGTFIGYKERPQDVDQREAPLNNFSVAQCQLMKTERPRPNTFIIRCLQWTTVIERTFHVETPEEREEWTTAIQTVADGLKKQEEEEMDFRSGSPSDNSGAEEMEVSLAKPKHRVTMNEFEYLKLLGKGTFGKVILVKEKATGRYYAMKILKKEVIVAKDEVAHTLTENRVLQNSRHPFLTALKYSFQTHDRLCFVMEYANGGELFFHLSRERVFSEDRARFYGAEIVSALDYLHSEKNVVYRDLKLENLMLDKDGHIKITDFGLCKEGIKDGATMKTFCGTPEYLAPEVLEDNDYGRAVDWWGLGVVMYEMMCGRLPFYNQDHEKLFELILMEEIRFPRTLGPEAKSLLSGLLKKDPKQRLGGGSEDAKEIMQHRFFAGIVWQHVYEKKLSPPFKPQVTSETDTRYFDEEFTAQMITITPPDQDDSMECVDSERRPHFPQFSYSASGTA
Procedure, shortened: as §1

PDGFRA = molecular target: T4, PDGFRA (Homo sapiens, UniProt P16234); conditions: read-out: Inhibitory effect (%) PDGFRA
T4 construct: purchased ProQinase (33PanQinase Activity Assay)
T4 sequence (P16234 24-1089): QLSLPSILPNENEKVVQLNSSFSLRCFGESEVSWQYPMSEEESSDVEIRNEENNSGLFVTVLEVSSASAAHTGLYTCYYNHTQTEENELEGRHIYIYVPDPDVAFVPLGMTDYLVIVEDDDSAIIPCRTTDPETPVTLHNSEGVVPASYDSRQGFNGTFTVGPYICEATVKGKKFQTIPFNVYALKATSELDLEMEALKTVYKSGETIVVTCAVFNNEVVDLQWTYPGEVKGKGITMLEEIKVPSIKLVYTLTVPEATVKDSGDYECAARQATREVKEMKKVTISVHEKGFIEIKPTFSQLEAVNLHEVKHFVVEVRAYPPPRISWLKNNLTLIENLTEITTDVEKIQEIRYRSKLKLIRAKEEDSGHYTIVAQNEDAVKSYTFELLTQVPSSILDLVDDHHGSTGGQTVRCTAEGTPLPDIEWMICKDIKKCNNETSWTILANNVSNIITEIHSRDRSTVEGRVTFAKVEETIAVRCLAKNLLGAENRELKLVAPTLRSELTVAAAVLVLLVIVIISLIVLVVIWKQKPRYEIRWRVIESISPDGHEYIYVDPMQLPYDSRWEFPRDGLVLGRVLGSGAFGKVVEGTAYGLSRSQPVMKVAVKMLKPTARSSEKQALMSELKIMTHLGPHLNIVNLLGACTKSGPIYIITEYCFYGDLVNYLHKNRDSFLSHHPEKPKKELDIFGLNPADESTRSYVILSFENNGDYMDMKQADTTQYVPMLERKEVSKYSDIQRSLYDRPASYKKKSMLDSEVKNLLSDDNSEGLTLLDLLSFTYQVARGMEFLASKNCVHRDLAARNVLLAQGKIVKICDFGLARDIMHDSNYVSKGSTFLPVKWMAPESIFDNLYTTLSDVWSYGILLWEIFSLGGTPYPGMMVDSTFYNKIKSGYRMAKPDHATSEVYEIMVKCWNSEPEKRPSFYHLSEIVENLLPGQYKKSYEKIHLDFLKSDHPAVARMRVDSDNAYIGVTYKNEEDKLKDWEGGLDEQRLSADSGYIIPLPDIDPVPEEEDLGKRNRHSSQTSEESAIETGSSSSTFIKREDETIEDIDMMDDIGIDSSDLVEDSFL
Procedure, shortened: as §1

CDK9_cyclinT1 = molecular target: T5, CDK9_cyclinT1 (Homo sapiens, UniProt P50750); conditions: read-out: Inhibitory effect (%) CDK9_cyclinT1
T5 construct: purchased Proqinase, Germany
Procedure, shortened: as §1

CDK8_cyclinC = molecular target: T6, CDK8_cyclinC (Homo sapiens, UniProt P49336); conditions: read-out: Inhibitory effect (%) CDK8_cyclinC
T6 construct: purchased Proqinase, Germany
T6 sequence (P49336 whole entry): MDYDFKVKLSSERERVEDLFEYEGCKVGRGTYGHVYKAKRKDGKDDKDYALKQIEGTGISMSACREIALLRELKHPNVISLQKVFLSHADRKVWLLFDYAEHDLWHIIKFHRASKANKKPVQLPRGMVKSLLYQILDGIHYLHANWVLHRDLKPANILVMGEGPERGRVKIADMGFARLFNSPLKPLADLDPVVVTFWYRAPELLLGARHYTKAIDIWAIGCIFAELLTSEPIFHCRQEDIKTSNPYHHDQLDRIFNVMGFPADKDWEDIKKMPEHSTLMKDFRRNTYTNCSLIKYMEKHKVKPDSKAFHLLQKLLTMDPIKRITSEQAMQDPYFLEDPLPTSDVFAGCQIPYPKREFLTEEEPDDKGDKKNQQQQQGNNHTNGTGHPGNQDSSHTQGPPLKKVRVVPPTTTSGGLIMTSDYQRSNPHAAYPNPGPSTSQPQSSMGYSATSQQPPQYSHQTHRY
T6 sequence (P24863 whole entry partner): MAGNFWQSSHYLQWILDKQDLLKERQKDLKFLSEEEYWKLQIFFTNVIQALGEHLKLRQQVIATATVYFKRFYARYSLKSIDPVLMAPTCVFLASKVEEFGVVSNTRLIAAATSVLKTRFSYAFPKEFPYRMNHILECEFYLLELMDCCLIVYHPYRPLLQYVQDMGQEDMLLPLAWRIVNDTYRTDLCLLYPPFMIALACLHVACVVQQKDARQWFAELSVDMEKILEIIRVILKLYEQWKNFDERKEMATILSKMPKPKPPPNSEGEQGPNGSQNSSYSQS
Procedure, shortened: as §1

PIM2 = molecular target: T7, PIM2 (Homo sapiens, UniProt Q9P1W9); conditions: read-out: Inhibitory effect (%) PIM2
T7 construct: purchased ProQinase (33PanQinase Activity Assay)
T7 sequence (Q9P1W9 whole entry): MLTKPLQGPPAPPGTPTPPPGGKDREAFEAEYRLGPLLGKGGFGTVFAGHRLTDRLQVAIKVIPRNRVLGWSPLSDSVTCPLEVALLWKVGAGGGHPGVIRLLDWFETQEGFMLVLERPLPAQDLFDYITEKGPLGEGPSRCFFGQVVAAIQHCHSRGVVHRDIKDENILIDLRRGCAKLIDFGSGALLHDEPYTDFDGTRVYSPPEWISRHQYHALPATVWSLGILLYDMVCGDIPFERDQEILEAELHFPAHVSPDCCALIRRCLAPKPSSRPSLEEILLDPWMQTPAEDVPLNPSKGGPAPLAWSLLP
Procedure, shortened: as §1

MAPKAPK2 = molecular target: T8, MAPKAPK2 (Homo sapiens, UniProt P49137); conditions: read-out: Inhibitory effect (%) MAPKAPK2
T8 construct: purchased ProQinase (33PanQinase Activity Assay)
T8 sequence (P49137 whole entry): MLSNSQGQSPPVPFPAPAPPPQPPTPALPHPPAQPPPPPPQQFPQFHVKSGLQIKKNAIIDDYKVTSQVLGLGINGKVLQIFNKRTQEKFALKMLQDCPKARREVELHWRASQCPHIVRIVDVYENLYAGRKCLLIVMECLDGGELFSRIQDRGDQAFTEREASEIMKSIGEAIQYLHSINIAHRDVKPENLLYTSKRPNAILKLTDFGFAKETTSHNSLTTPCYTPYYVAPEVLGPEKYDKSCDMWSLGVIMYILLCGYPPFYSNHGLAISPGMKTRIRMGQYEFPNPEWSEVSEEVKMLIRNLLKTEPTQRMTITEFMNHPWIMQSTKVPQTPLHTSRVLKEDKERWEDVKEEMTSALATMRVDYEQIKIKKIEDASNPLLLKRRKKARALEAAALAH
Procedure, shortened: as §1

PAK2 = molecular target: T9, PAK2 (Homo sapiens, UniProt Q13177); conditions: read-out: Inhibitory effect (%) PAK2
T9 construct: purchased ProQinase (33PanQinase Activity Assay)
Procedure, shortened: as §1

CSNK2A1 = molecular target: T10, CSNK2A1 (Homo sapiens, UniProt P68400); conditions: read-out: Inhibitory effect (%) CSNK2A1
T10 construct: purchased Proqinase, Germany
T10 sequence (P68400 whole entry): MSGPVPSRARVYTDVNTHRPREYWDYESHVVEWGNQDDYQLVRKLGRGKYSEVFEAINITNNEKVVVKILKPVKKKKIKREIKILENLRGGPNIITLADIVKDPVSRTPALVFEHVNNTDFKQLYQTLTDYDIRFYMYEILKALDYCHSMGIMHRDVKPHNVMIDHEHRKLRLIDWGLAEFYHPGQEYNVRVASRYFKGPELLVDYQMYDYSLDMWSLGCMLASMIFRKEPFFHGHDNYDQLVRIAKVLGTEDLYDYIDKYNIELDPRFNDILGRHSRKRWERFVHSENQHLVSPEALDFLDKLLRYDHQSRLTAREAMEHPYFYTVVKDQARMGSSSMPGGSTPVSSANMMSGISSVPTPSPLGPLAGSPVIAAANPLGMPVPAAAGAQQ
Procedure, shortened: as §1

EIF2AK1 = molecular target: T11, EIF2AK1 (Homo sapiens, UniProt Q9BQI3); conditions: read-out: Inhibitory effect (%) EIF2AK1
T11 construct: purchased Proqinase, Germany
Procedure, shortened: as §1

EGFR = molecular target: T12, EGFR (Homo sapiens, UniProt P00533); conditions: read-out: Inhibitory effect (%) EGFR
T12 construct: purchased Proqinase, Germany
T12 sequence (P00533 25-1210): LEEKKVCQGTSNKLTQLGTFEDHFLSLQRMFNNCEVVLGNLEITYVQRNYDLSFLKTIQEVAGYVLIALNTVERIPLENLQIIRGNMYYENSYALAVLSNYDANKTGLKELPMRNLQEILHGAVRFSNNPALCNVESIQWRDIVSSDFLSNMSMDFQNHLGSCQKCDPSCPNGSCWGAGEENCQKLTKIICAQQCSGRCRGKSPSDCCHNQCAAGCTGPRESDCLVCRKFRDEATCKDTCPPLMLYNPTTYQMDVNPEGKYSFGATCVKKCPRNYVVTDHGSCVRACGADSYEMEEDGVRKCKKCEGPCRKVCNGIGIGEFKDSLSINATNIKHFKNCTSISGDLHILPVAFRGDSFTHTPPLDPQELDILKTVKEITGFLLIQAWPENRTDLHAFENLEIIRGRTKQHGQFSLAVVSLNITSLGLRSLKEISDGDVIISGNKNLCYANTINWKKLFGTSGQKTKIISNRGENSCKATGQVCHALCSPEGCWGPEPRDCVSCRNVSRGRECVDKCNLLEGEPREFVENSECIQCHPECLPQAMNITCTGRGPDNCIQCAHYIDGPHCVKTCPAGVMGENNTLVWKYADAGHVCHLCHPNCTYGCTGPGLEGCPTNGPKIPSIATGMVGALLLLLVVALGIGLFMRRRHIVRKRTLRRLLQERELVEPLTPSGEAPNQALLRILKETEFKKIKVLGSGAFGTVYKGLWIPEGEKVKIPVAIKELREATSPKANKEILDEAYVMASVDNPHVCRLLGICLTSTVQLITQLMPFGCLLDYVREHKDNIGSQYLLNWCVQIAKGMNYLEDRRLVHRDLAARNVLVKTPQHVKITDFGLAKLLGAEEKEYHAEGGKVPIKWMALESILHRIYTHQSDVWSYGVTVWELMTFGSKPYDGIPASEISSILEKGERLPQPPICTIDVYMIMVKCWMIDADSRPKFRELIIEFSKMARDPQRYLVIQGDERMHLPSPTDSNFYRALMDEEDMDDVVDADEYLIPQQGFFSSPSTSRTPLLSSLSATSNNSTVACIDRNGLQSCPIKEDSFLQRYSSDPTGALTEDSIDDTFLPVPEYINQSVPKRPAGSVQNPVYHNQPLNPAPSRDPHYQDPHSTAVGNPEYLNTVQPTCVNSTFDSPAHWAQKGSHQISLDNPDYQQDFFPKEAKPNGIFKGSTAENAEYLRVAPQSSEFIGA
Procedure, shortened: as §1

CHEK1 = molecular target: T13, CHEK1 (Homo sapiens, UniProt O14757); conditions: read-out: Inhibitory effect (%) CHEK1
T13 construct: purchased Proqinase, Germany
T13 sequence (O14757 1-476): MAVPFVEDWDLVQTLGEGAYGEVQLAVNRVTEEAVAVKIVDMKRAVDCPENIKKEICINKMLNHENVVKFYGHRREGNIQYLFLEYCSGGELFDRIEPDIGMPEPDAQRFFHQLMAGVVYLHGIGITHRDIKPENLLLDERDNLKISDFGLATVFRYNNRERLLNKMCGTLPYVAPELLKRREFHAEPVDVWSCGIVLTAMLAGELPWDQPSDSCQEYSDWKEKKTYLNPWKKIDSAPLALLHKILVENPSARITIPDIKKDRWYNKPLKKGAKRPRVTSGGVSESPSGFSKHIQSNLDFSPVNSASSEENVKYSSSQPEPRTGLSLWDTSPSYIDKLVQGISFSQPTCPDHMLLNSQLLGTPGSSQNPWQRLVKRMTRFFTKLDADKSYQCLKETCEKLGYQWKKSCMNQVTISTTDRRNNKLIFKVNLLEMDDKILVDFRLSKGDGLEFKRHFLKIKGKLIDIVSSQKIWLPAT
Procedure, shortened: as §1

Row | Structure (SMILES) | inhibition at 0.1 µM (EPHA2) [%] | inhibition at 0.1 µM (GSG2) [%] | inhibition at 0.1 µM (AKT1) [%] | inhibition at 0.1 µM (PDGFRA) [%] | inhibition at 0.1 µM (CDK9_cyclinT1) [%] | inhibition at 0.1 µM (CDK8_cyclinC) [%] | inhibition at 0.1 µM (PIM2) [%] | inhibition at 0.1 µM (MAPKAPK2) [%] | inhibition at 0.1 µM (PAK2) [%] | inhibition at 0.1 µM (CSNK2A1) [%] | inhibition at 0.1 µM (EIF2AK1) [%] | inhibition at 0.1 µM (EGFR) [%] | inhibition at 0.1 µM (CHEK1) [%]
1 | CN1CCC(=O)NCCNc2ccn3ncc(c3n2)-c2cccc(c2)C1 [OD29] | 10.4 | 34.6 | -2.83 | -9.93 | -2.77 | -9.32 | 1.97 | -4.8 | 7.91 | -1.02 | -0.05 | -8.91 | 4.25
2 | CN1CCc2cccc(c2)Nc2nccc(n2)N2CCCc3cc(ccc32)C1 [OD16] | -21.9 | 6.26 | -4.07 | -16 | 54.2 | -16.6 | -5.63 | -14.6 | -27.1 | -9.27 | -7.88 | -13 | 0.85
3 | c1ccc2c(-c3cnn4cc(-c5ccc(N6CCNCC6)cc5)cnc34)ccnc2c1 [LDN-193189, reference compound] | -17.2 | -5.75 | 16.1 | 3.63 | -26.7 | -1.99 | 6.22 | 0.06 | -2.66 | -10.9 | -16.3 | 2.46 | -34.6
